Measured values taken from patent US7544814B2, “[3.2.0] Heterocyclic compounds and methods of using the same” (Nereus Pharmaceuticals, Inc., priority 2004, dated 2009).
Where “and” joins values, the source holds several entries; their conditions need not be identical. Identical values can stand only once. Like-named read-outs stand apart in the source and are kept apart here.

What was measured:
[1] = system: HT-29; assay: Cell growth inhibition (resazurin), HT-29
[2] = system: MDA-MB-231; assay: Cell growth inhibition (resazurin), MDA-MB-231
[3] = system: NCI-H292; assay: Cell growth inhibition (resazurin), NCI-H292; details: for EC50: Homo sapiens, NCI-H292, 48 h
[4] = system: PC-3; assay: Cell growth inhibition (resazurin), PC-3; type: cell-based, human
[5] = system: NF-κB; assay: NF-κB-mediated luciferase reporter gene assay, HEK293 NF-κB/Luc cells, TNF-α stimulation; type: cell-based, human; details: for effect on luciferase activity upon TNF-α stimulation, in words: pretreatment of NF-κB/Luc 293 cells
Method: The HEK293 NF-κB/luciferase reporter cell line is a derivative of the human embryonic kidney cell line (ATCC; CRL-1573) and carries a luciferase reporter gene under the regulation of 5× NF-κB binding sites. […] When performing the luciferase assay, the DMEM basal medium was replaced with phenol-red free DMEM basal medium and the G418 was omitted.
For NF-κB-mediated luciferase assays, HEK293 NF-κB/luciferase cells were seeded at 1.5×10^4 cells/well in 90 μl phenol-red free DMEM complete medium into Corning 3917 white opaque-bottom tissue culture plates. For Formula II-2, Formula II-4, Formula II-5A, and Formula II-18, a 400 μM starting dilution was made in 100% DMSO and this dilution was used to generate a 8-point half log dilution series. […] For Formula II-20, a 2.5 mM or 8 mM starting solution was made in 100% DMSO and the final test concentrations ranged from 6.3 μM to 2.0 nM or 20 μM to 6.3 nM, respectively. The plates were returned to the incubator for 1 hour. After 1 hr pretreatment, 10 μl of a 50 ng/ml TNF-α solution, prepared in the phenol-red free DMEM medium was added, and the plates were incubated for an additional 6 hr.
At the end of the TNF-α stimulation, 100 μl of Steady Lite HTS luciferase reagent (Packard Bioscience) was added to each well and the plates were left undisturbed for 10 min at room temperature before measuring the luciferase activity. The relative luciferase units (RLU) were measured by using a Fusion microplate fluorometer (Packard Bioscience).

[6] = system: B16-F10; assay: Cell growth inhibition (resazurin), B16-F10
[7] = system: U266; assay: Cell growth inhibition (resazurin), U266; details: for EC50: 48 hours drug exposure; for cytotoxicity against U266, in words: from EC50 values
[8] = target: T1, caspase-like activity of purified rabbit muscle 20S proteasome (Oryctolagus cuniculus, UniProt A0A5F9DQW2); assay: In vitro inhibition of 20S proteasome caspase-like activity (Z-LLE-AMC)
T1 sequence (A0A5F9DQW2 1-212): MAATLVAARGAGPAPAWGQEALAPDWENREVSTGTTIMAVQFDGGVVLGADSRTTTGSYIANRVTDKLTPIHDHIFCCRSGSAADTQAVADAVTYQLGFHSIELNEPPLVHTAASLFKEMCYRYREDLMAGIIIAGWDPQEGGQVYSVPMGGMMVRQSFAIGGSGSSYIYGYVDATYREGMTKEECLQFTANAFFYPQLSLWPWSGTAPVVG

[9] = target: T2, trypsin-like activity of purified rabbit muscle 20S proteasome (Oryctolagus cuniculus, UniProt G1SWK8); assay: In vitro inhibition of 20S proteasome trypsin-like activity (Boc-LRR-AMC)
T2 sequence (G1SWK8 1-271): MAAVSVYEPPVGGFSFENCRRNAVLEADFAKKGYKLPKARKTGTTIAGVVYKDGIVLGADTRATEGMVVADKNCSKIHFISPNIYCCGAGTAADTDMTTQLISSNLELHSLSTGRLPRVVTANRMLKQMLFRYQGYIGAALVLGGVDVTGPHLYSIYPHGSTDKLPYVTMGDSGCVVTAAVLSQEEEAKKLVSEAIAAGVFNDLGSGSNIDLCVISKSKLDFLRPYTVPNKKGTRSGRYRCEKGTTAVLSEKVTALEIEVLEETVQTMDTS

[10] = system: OVCAR-3; assay: Cell growth inhibition (resazurin), OVCAR-3; details: for EC50: 48 hours drug exposure
[11] = target: T3, chymotrypsin-like activity of purified rabbit muscle 20S proteasome (Oryctolagus cuniculus, UniProt G1T4Q9); assay: In vitro inhibition of 20S proteasome chymotrypsin-like activity (suc-LLVY-AMC)
T3 sequence (G1T4Q9 1-263): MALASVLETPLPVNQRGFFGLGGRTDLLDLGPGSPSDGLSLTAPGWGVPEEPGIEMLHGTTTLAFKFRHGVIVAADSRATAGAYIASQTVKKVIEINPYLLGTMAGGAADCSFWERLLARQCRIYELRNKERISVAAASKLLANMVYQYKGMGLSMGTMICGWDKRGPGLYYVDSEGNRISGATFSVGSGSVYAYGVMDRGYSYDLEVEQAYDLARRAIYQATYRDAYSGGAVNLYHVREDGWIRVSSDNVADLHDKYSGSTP

[12] = target: T2, trypsin-like activity of purified rabbit muscle 20S proteasome; assay: biochemical
[13] = system: RPMI 8226; assay: Cell growth inhibition (resazurin), RPMI 8226; details: for cytotoxicity against RPMI 8226, in words: from EC50 values
[14] = Homo sapiens, U-266, 48 h, read-out: U266 EC50, Table 2
[15] = EC50 Caspase-like, Table 6, values in nM
[16] = EC50 values, caspase-like activity, summary of Table 6
[17] = EC50 Chymotrypsin-like, Table 6, values in nM
[18] = Homo sapiens, RPMI-8226, 48 h, read-out: RPMI 8226 EC50, Table 2, 48 hours drug exposure, mean ± SD where n≥3
[19] = read-out: RPMI 8226 EC50, Table 2, 48 hours drug exposure, mean ± SD where n≥3
[20] = EC50 Caspase-like, Table 6, values in μM
[21] = EC50 values, chymotrypsin-like activity, summary of Table 6
[22] = Homo sapiens, HEK293, read-out: EC50, NF-κB-mediated luciferase reporter gene assay, Table 5, values in μM, 1 hr pretreatment, TNF-α 6 hr

Question: Which results are given for `C[C@@]12OC(=O)[C@]1(C(O)[C@@H]1C=CCCC1)NC(=O)[C@@H]2CCI` (single isomer, unassigned) [Formula II-19]?
Answer: EC50 ([1]; Homo sapiens, HT-29, 48 h, read-out: EC50 against HT-29, Table 1, 48 hours drug exposure, mean ± SD where n≥3): 11 ± 1.6 nM; cytotoxicity against HT-29, in words ([1]; from EC50 values): cytotoxic; EC50 ([2]; Homo sapiens, MDA-MB-231, 48 h, read-out: EC50 against MDA-MB-231, Table 1, 48 hours drug exposure, mean ± SD where n≥3): 14 ± 3.2 nM; cytotoxicity against MDA-MB-231, in words ([2]; from EC50 values): cytotoxic; EC50 ([3]; read-out: EC50 against NCI-H292, Table 1, 48 hours drug exposure, mean ± SD where n≥3): 27 ± 3.8 nM; cytotoxicity against NCI-H292, in words ([3]; from EC50 values): cytotoxic; EC50 ([4]; Homo sapiens, PC-3, 48 h, Table 1, 48 hours drug exposure, mean ± SD where n≥3, read-out: EC50 against PC-3): 29 ± 4 nM; cytotoxicity against PC-3, in words ([4]; from EC50 values): cytotoxic; EC50 ([5]; Homo sapiens, HEK293, read-out: EC50, NF-κB-mediated luciferase reporter gene assay, Table 5, values in nM, 1 hr pretreatment, TNF-α 6 hr): 7 nM; EC50 ([5]; Homo sapiens, HEK293, read-out: NF-κB EC50, Table 12): 10 nM; effect on luciferase activity upon TNF-α stimulation, in words [5]: dose-dependent decrease; EC50 ([6]; Mus musculus, B16-F10, 48 h, read-out: EC50 against B16-F10, Table 1, 48 hours drug exposure, mean ± SD where n≥3): 13 ± 1.9 nM; cytotoxicity against B16-F10, in words ([6]; from EC50 values): cytotoxic; EC50 ([7]; Homo sapiens, U-266, 48 h, read-out: EC50 against U266, Table 1): 3.2 nM; EC50 [7, 14]: 3.2 nM; cytotoxicity against U266, in words [7]: cytotoxic; EC50 ([7]; read-out: EC50 against U266, Table 1): 3.4 nM; EC50 ([7]; read-out: U266 EC50, Table 2): 3.4 nM; EC50 [8, 15]: 573 nM and 739 nM; EC50 [8, 16]: 213 to 850 nM; EC50 ([8]; Proteasome Caspase-like EC50, Table 12): 573 nM and 739 nM; inhibition of the trypsin-like activity of the 20S proteasome, in words ([9]; under the conditions tested): able to inhibit; EC50 ([10]; Homo sapiens, OVCAR-3, 48 h, read-out: EC50 against OVCAR-3, Table 1): 24 nM; cytotoxicity against OVCAR-3, in words ([10]; from EC50 values): cytotoxic; EC50 ([10]; read-out: EC50 against OVCAR-3, Table 1): 20 nM; EC50 [11, 17]: 3 nM; EC50 ([11]; Proteasome Chymotrypsin-like EC50, Table 12): 3 nM; EC50 [12]: 13 nM and 15 nM; EC50 ([13]; Homo sapiens, RPMI-8226, 48 h, read-out: EC50 against RPMI 8226, Table 1, 48 hours drug exposure): 5.9 nM; EC50 [13, 18]: 5.9 nM; EC50 ([13]; Homo sapiens, RPMI-8226, read-out: Cytotoxicity RPMI EC50, Table 12): 6 nM; cytotoxicity against RPMI 8226, in words [13]: cytotoxic; EC50 ([13]; read-out: Cytotoxicity RPMI EC50, Table 12): 7 nM; EC50 ([13]; read-out: EC50 against RPMI 8226, Table 1, 48 hours drug exposure): 7.1 nM; EC50 [13, 19]: 7.1 nM

Question: For `CC[C@H]1C(=O)N[C@@]2([C@@H](O)C3CCCCC3)C(=O)O[C@@]12C` [Formula II-3], which EC50 ([3]; read-out: EC50 against NCI-H292) is on record?
Answer: The EC50 was > 20000 nM.

Question: What about the EC50 [8, 20] of the same compound?
Answer: Its EC50 is > 20000 nM.

Question: And the “inhibition of the trypsin-like activity of the 20S proteasome, in words” value (“inhibition” below) [9]?
Answer: The value was “able to inhibit”.

Question: What about the EC50 [11, 17] of the same compound?
Answer: The EC50 was 964 nM.

Question: What about the EC50 [11, 21] of the same compound?
Answer: The EC50 was 207 to 964 nM.

Question: And the EC50 [12]?
Answer: The EC50 was 5500 nM and 7700 nM.

Question: And the EC50 [13, 18]?
Answer: The EC50 was > 20000 nM.

Question: Which EC50 [5, 22] does the source give for `C[C@@]12OC(=O)[C@]1([C@@H](O)[C@@H]1C=CCCC1)NC(=O)[C@@H]2CCN=[N+]=[N-]` [Formula II-29] here?
Answer: Its EC50 is 1200 nM.

Question: What about the “effect on luciferase activity upon TNF-α stimulation, in words” value [5] of the same compound?
Answer: The value was “dose-dependent decrease”.

Question: And the EC50 ([5]; read-out: EC50, NF-κB-mediated luciferase reporter gene assay, Table 5, values in μM, 1 hr pretreatment, TNF-α 6 hr)?
Answer: The EC50 was 1400 nM.

Question: What about the “cytotoxicity against U266, in words” value [7] of the same compound?
Answer: Its value is “cytotoxic”.

Question: And the EC50 [8, 15]?
Answer: The EC50 was 535 nM and 520 nM.

Question: What about the EC50 [8, 16] of the same compound?
Answer: Its EC50 is 213 to 850 nM.

Question: And the “inhibition” value ([9]; under the conditions tested)?
Answer: Its value is “able to inhibit”.

Question: What about the EC50 [11, 17] of the same compound?
Answer: Its EC50 is 6 nM and 8 nM.

Question: What about the EC50 [11, 21] of the same compound?
Answer: The EC50 was 2 to 11 nM.

Question: And the EC50 [12]?
Answer: Its EC50 is 175 nM and 254 nM.

Question: What about the EC50 [13, 18] of the same compound?
Answer: The EC50 was 4280 nM.

Question: And the “cytotoxicity against RPMI 8226, in words” value [13]?
Answer: Its value is “cytotoxic”.

Question: And the EC50 [13, 19]?
Answer: Its EC50 is 6940 nM.

Question: Which EC50 [5, 22] does the source give for `CCC[C@H]1C(=O)N[C@@]2([C@@H](O)[C@@H]3C=CCCC3)C(=O)O[C@@]12C` [Formula II-30] here?
Answer: Its EC50 is 2200 nM.

Question: What about the “effect on luciferase activity upon TNF-α stimulation, in words” value [5] of the same compound?
Answer: The value was “dose-dependent decrease”.

Question: What about the EC50 [7, 14] of the same compound?
Answer: Its EC50 is 889 nM.

Question: What about the “cytotoxicity against U266, in words” value [7] of the same compound?
Answer: Its value is “cytotoxic”.

Question: What about the EC50 ([7]; read-out: U266 EC50, Table 2) of the same compound?
Answer: The EC50 was 1240 nM.

Question: What about the EC50 [8, 15] of the same compound?
Answer: The EC50 was 956 nM.

Question: What about the EC50 [8, 20] of the same compound?
Answer: Its EC50 is 1300 nM.

Question: And the EC50 ([8]; EC50 values, caspase-like activity, range in mixed units, summary of Table 6, range from nM to μM)?
Answer: The EC50 was 956 to 8700 nM.

Question: And the “inhibition” value ([9]; under the conditions tested)?
Answer: Its value is “able to inhibit”.

Question: And the EC50 [11, 17]?
Answer: Its EC50 is 21 nM.

Question: What about the EC50 [11, 21] of the same compound?
Answer: Its EC50 is 13 to 88 nM.

Question: What about the EC50 [12] of the same compound?
Answer: The EC50 was 905 nM and 1200 nM.

Question: And the EC50 [13, 18]?
Answer: The EC50 was 4900 nM.

Question: And the “cytotoxicity against RPMI 8226, in words” value [13]?
Answer: Its value is “cytotoxic”.

Question: What about the EC50 [13, 19] of the same compound?
Answer: Its EC50 is 4160 nM.
